Where a SMILES comes first, the peptide text is derived from it. [ ]: non-standard residue; d: D form. The star is where a group is joined. Phg = N[CH](C(=O)O)c1ccccc1; Cbz = O=C(OCc1ccccc1)*; X1 = S=c1[nH]nc(N*)s1; Bn = c1ccc(C*)cc1
Experiments:
Format in all cases: biochemical
[1] = target: 92 kD gelatinase (Homo sapiens, UniProt P14780); assay: Assay of 92 KD gelatinase inhibition activity; settings: 92KD gelatinase 25 pM, H-150 buffer pH 7.4; read-out: Ki(app)
Description: H-150 buffer, pH 7.4, was prepared by CaCl2 H2 O (1.47 grams), NaCl (8.77 grams) and N-[2-hydroxyethyl]piperazine-N'-[2-ethanesulfonic acid](23.83 grams) to distilled and deionized water and then bring the final volume of the solution to 1 liter. A reaction mixture having a final volume of 500 μL was prepared with H-150 buffer, 200 μgrams of Pro-92KD gelatinase (Strongin et al., J. Biol. Chem., 268:14033 (1993); Goldberg, et al., J. Biol. Chem., 267:4583 (1992); Okada et al., J. Biol. Chem. 267:21712 (1992)), p-aminophenyl mercuric acetate (Sigma Chemical Co., St. Louis, Mo.) (1 mM) and Brij (dodexylpoly(oxyethyleneglycolether))(0,008% w/v). The reaction mixture wsa then incubated for 24 hours at 37° C.
The reaction mixture was applied to a NAP-5 column (G-25 SEPHADEX™, Pharmacia). Fractions containing 72KD gelatinase were identified using 12% polyacrylamide gel electrophoresis and concentrated to about 100-200 μliters by centrifigation (5000 g, 1 hour).
(§1) A solution containing H-150 buffer (2.0 mL), 92KD gelatinase (25 pM) and ethylphenolpoly(ethylene-glycolether)n (Boerhringer Mannheim) (4.0 μM) was prepared in a stirred cuvette. Coumarin peptide substrate (4 μL of a 5 mM solution in dimethyl sulfoxide) was added to the reaction mixture. The rate of hydrolysis was determined for about 100-200 seconds by measuring the fluorescence of the reaction at ex328 nanometers and […] using a Hitachi F-2000 Fluorescence Spectrophotometer.
(§2) 2 μL of a 10 mM inhibitor stock solution (in dimethyl sulfoxide) is added and the reduction in the rate of hydrolysis is determined. Additional 2 μL aliquots of the stock inhibitor solution is added until a 30% to 70% inhibition is observed. Ki is calculated on the assumption of simple competitive inhibition and that the substrate concentration is much less than Km.

[2] = target: T1, 72 kD gelatinase (Homo sapiens, UniProt P08253); assay: Assay of 72 KD gelatinase inhibition activity; settings: 72KD gelatinase 180 pM, H-150 buffer pH 7.4; read-out: Ki(app)
T1 sequence (P08253 110-660): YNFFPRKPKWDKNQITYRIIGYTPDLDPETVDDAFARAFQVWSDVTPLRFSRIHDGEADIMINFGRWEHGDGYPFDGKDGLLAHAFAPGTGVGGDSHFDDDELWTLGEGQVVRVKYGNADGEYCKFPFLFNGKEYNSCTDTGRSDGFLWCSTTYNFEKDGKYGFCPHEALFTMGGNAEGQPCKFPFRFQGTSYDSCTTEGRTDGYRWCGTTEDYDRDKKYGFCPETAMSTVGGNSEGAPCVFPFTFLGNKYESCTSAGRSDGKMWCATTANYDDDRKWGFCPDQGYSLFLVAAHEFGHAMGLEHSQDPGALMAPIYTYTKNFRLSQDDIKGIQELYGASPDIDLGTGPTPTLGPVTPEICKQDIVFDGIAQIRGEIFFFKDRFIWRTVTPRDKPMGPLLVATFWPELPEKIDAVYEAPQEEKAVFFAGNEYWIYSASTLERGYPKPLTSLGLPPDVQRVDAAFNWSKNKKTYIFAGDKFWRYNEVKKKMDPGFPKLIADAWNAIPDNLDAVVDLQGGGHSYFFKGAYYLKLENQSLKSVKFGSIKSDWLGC
Description: H-150 buffer, pH 7.4, was prepared by CaCl2 H2O (1.47 grams), NaCl (8.77 grams) and N-[2 -hydroxyethyl]piperazine-N'-[2-ethanesulfonic acid](23.83 grams) to distilled and deionized water and then bring the final volume of the solution to 1 liter. An reaction mixture having a final volume of 250 μL was prepared with H-150 buffer, 40 μgrams of Pro-72KD gelatinase (Strongin, et al., J. Biol. Chem. 268:14033 (1993); Goldberg, et al., J. Biol. Chem., 267:4583 (1992); Kleiner, et al., Biochemistry 32:1583 (1993)) and p-aminophenyl mercuric acetate (Sigma Chemical Co., St. Louis, Mo.) (1 mM). The reaction mixture was then incubated for 3 hours at 25° C.
The reaction mixture was applied to a NAP-5 column (G-25 SEPHADEX™, Pharmacia). Fractions containing […] were identified using 12% SDS polyacrylamide gel electrphoresis and concentrated to about 100-200 μliters by centrifigation (5000 g, 15 minutes).
as §1, with “mL), 72KD” for “mL), 92KD”, “gelatinase (180” for “gelatinase (25”, “Mannheim) (1.3” for “Mannheim) (4.0”, “substrate (2” for “substrate (4”, “a 1” for “a 5”
as §2

[3] = target: human neutrophil collagenase (Homo sapiens, UniProt P22894); assay: Assay of human neutrophil collagenase inhibition activity; settings: human neutrophil collagenase 2 nM, H-150 buffer pH 7.4; read-out: Ki(app)
Chain of human neutrophil collagenase (P22894 101-467): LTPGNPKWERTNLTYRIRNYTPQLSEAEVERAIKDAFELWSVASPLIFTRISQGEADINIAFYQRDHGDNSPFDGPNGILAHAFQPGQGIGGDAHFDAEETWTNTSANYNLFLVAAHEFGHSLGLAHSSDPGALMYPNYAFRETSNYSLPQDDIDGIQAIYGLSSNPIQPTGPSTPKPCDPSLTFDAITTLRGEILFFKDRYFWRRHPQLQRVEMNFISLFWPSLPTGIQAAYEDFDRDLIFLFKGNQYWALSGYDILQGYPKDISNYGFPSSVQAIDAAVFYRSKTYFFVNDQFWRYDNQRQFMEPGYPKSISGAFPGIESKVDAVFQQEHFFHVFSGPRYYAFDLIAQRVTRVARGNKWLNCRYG
Description: H-150 buffer, pH 7.4, was prepared by adding CaCl2 H2 O (1.47 grams), NaCl (8.77 grams) and N-[2-hydroxyethyl]piperazine-N'-[2-ethanesulfonic acid] (23.83 grams) to distilled and deionized water and then bringing the final volume of the solution to 1 liter.
A reaction mixture with a final volume of 2.0 mL was prepared from H-150 buffer, human neutrophil collagenase (Schnierer, et al., Blochem. Biophys. Res. Comm., 191:319 (1993); Knight et al., Federation of Europena Biochemical Societies 296:263 (1992)) (2 nM). Coumarin peptide substrate (4 μL of a 5 mM solution in dimethyl sulfoxide) was added to the reaction mixture. The rate of hydrolysis was determined for about 100-200 seconds by measuring the fluorescence of the reaction at ex328 nanometers and […] using a Hitachi F-2000 Fluorescence Spectrophotometer.
as §2

[4] = target: stromelysin (Homo sapiens, UniProt P08254); assay: Assay of stromelysin inhibition activity (fluorogenic coumarin peptide substrate); settings: trypsin-activated stromelysin 2 nM, H-150 buffer pH 7.4, room temperature; read-out: Ki(app)
Chain of stromelysin (P08254 100-477): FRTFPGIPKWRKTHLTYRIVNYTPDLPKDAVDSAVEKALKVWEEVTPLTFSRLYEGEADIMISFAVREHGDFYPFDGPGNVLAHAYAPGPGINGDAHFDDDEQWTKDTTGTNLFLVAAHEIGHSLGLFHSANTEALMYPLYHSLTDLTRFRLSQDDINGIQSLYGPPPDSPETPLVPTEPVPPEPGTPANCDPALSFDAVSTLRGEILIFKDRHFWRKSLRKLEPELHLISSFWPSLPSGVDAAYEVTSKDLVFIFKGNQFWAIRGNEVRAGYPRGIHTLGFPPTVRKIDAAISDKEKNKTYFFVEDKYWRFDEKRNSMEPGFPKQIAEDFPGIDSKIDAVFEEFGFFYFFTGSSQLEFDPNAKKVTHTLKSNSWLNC
Description: Stromelysin was first activated with trypsin. This was done by preparing a reaction mixture in H-150 (H-150 consists of 10 mM CaCl2, 150 mM NaCl and 100 mM HEPES at pH 7.4) containing a final concentration of 25 μg/mL trypsin and 2.2 μM of stromelysin (Marcy et al., Biochemistry,30:6476 (1991); Koklitis et al., Biochem. J., 376:217 (1991). The reaction was incubated for 30 minutes at 37° C. and then quenched by adding trypsin inhibitor agarose to the reaction mixture at a 20 fold excess with respect to trypsin.
The reaction mixture was centrifuged at 14,000 rpm (16,000 ×g) for 30 minutes using an Eppendorf Centrifuge 5415C. The supernant, which contains activated stromelysin, was concentrated with a Centricon 10 (5000 g, 1 hour). A sample was analyzed by Bradford total protein assay and 12% SDS polyacrylamide gel electrophoresis.
All steps of the stromelysin inhibition assay were performed at room temperature. Assay solutions were prepared for each inhibitor tested. Activated stromelysin was added to a stirred covelte to a final concentration of 2 nM in 2 mL of H-150 buffer. 4 μL 5 mM coumarin peptide substrate was dissolved in DMSO and the initial rate of hydrolysis was measured for 100-200 seconds.
Substrate hydrolysis was assessed by fluorescence using a slit width of 10:10, excitation at 328 nm and emission at 393 nm. Ki was calculated based on the assumption of simple competitive inhibition and a substrate concentration much less than Km. 2 μL of 10 mM inhibitor in DMSO was added and the reduction in hydrolysis rate measured. The addition of 2 μL of inhibitor was continued until a 30-70% inhibition was observed.

Chain of 92 kD gelatinase (P14780 107-707): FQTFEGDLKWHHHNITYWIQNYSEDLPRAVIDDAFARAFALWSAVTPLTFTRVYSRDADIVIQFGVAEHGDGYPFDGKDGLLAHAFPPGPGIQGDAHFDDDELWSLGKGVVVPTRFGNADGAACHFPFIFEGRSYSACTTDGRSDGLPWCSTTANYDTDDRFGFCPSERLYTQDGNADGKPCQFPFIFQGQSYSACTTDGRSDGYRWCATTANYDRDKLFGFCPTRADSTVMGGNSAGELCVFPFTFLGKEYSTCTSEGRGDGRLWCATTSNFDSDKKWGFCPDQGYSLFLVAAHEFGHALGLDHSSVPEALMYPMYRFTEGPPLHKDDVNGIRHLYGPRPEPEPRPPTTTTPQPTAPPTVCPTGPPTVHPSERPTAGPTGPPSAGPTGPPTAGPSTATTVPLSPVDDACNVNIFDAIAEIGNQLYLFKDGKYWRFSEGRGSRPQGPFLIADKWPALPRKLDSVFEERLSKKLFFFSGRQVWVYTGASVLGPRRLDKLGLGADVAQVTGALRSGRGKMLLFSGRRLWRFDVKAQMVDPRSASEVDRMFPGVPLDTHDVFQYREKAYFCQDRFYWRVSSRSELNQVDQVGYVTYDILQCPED

Structure (SMILES)	Ki [1] [nM]	Ki [2] [nM]	Ki [3] [nM]	Ki [4] [nM]
CSCC[C@H](NC(=O)[C@H](Cc1ccccc1)NC(=O)OCc1ccccc1)C(=O)N[C@@H](Cc1ccc(OCc2ccccc2)cc1)C(=O)N[C@H](C(=O)Nc1n[nH]c(=S)s1)c1ccccc1		0.2		
CC(C)[C@H](NC(=O)[C@H](Cc1ccccc1)NC(=O)c1ccc(NS(=O)(=O)c2ccc(C(C)(C)C)cc2)cc1)C(=O)Nc1n[nH]c(=S)s1 [5-(N-(4-(4-t-Butylphenylsulfonylamino)benzoyl)-phenylalanyl-valylamino)-1,3,4-thiadiazole-2-thione]	0.31	0.68	1.04	44
CC(C)[C@H](NC(=O)[C@H](Cc1ccccc1)NC(=O)c1ccc(Oc2ccccc2)cc1)C(=O)Nc1n[nH]c(=S)s1 [5-(N-(4-phenoxy)benzoyl-phenylalanyl-valylamino)-1,3,4-thiadiazole-2-thione]			1.67	101
CC(C)[C@H](NC(=O)[C@H](Cc1ccccc1)NC(=O)c1ccc(-c2ccccc2)cc1)C(=O)Nc1n[nH]c(=S)s1 [5-(N-(4-phenylbenzoyl)phenylalanyl-valylamino)-1,3,4-thiadiazole-2-thione]	0.31	0.8	2.6	82
O=C(N[C@@H](Cc1ccccc1)C(=O)Nc1n[nH]c(=S)s1)OCC1c2ccccc2-c2ccccc21 [5-(N-(9-fluorenylmethoxycarbonyl)-phenylalanylamino)-1,3,4-thiadiazole-2-thione]	0.23			
CC(C)C[C@H](NC(=O)[C@H](Cc1ccc(OCc2ccccc2)cc1)NC(=O)OCc1ccccc1)C(=O)Nc1n[nH]c(=S)s1 [5-(N-benzyloxycarbonyl-((O-benzyl)tyrosyl)-leucylamino)-1,3,4-thiadiazole-2-thione]	0.29	0.24	1.83	96
C[C@H](NC(=O)[C@H](Cc1ccccc1)NC(=O)OCc1ccccc1)C(=O)Nc1n[nH]c(=S)s1 [5-(N-benzyloxycarbonyl-phenylalanyl-alanylamino)-1,3,4-thiadiazole-2-thione]	3.6			1400
CC(C)C[C@H](NC(=O)[C@H](Cc1ccccc1)NC(=O)OCc1ccccc1)C(=O)N[C@@H](Cc1c[nH]c2ccccc12)C(=O)Nc1n[nH]c(=S)s1 [5-(N-benzyloxycarbonyl-phenylalanyl-leucyl-tryptonylamino)-1,3,4-thiadiazole-2-thione]			1.45	246
CC(C)(C)OC(=O)N[C@@H](Cc1ccc(OCc2ccccc2)cc1)C(=O)NC(C(=O)Nc1n[nH]c(=S)s1)c1ccccc1 (some centres unmarked) [5-(N-t-Butoxycarbonyl-(O-benzyl)tyrosyl-phenylglycineamino)-1,3,4-thiadiazole-2-thione]	0.245	0.51	0.99	
CC(C)C[C@H](NC(=O)OC(C)(C)C)C(=O)Nc1n[nH]c(=S)s1 [5-(N-t-butoxycarbonyl-leucylamino)-1,3,4-thiadiazole-2-thione]				10200
CC(C)[C@H](NC(=O)[C@H](Cc1ccc([N+](=O)[O-])cc1)NC(=O)OCc1ccccc1)C(=O)Nc1n[nH]c(=S)s1 [5-(benzyloxycarbonyl-(p-nitro)phenylalanyl-valylamino)-1,3,4-thiadiazole-2-thione]				180

The remaining lines, values ahead:

Ki [1] [nM]	Ki [2] [nM]	Ki [3] [nM]	Ki [4] [nM]	Structure (SMILES)
0.15				O=C(N[C@@H](Cc1ccc(OCc2ccccc2)cc1)C(=O)N[C@@H](Cc1ccccc1)C(=O)Nc1n[nH]c(=S)s1)OCc1ccccc1
0.76				O=C(N[C@H](C(=O)Nc1n[nH]c(=S)s1)c1ccccc1)[C@H](Cc1ccc(OCc2ccccc2)cc1)NC(=O)[C@@H]1CCCN1C(=O)OCc1ccccc1
	0.38			O=C(CNC(=O)[C@H](Cc1ccc(OCc2ccccc2)cc1)NC(=O)OCc1ccccc1)Nc1n[nH]c(=S)s1 [5-(N-benzyloxycarbonyl-(O-Benzyl)tyrosyl-glycylamino)-1,3,4-thiadiazole-2-thione]
	0.073		110	O=C(CNC(=O)OCc1ccccc1)NC(Cc1ccc(O)cc1)C(=O)NC(Cc1ccc(OCc2ccccc2)cc1)C(=O)NC(C(=O)Nc1n[nH]c(=S)s1)c1ccccc1 (centres unmarked) [5-(N-benzyloxycarbonyl-glycyl-tyrosyl-(O-benzyl)tyrosyl)-phenylglycylamino)-1,3,4-thiadiazole-2-thione] (Cbz-GYY(Bn)[Phg]-X1; configuration not given here)
	0.95	2.9		O=C(N[C@@H](Cc1ccccc1)C(=O)N[C@@H](CCc1ccccc1)C(=O)Nc1n[nH]c(=S)s1)OCc1ccccc1 [5-(N-benzyloxycarbonyl-phenylalanyl-homophenylalanylamino)-1,3,4-thiadiazole-2-thione]

From patent publication US5677282A (Proscript, Inc., priority 1995, dated 1997)
